Measurements taken from ChEMBL document CHEMBL1141944, “A synthesis of 3-deoxydihydrolycoricidine: refinement of a structurally minimum pancratistatin pharmacophore” (Bioorg Med Chem Lett, 2005).
The source made the active and inactive calls. The calls are words filed in the database; no cut-off is given here.

What was measured:
Format in all cases: functional, cell-based
MCF7 [1] = test: Induction of apoptosis in human breast carcinoma MCF7 cell line
MCF7 [2] = test: Antitumor activity in human breast carcinoma MCF7 cell line at 1 to 10 uM
Jurkat [3] = test: Antitumor activity in human Jurkat […] cell line at 1 to 10 uM
Jurkat [4] = test: Induction of apoptosis in human Jurkat […] cell line

Q: For `O=C1N[C@H]2[C@H](O)C[C@@H](O)C[C@@H]2c2cc3c(cc21)OCO3`, which Activity (MCF7 [1]) is on record?
A: inactive

Q: And the Activity (MCF7 [2])?
A: inactive

Q: What about the Activity (Jurkat [3]) of the same molecule?
A: inactive

Q: What about the Activity (Jurkat [4]) of the same molecule?
A: inactive

Q: What does the source list for `O=C1N[C@H]2[C@H](O)[C@H](O)[C@@H](O)[C@H](O)[C@@H]2c2cc3c(c(O)c21)OCO3`?
A: Activity (MCF7 [1]): Active; Activity (Jurkat [4]): Active
